# Results as given in patent US20190365776A1, “THERAPEUTIC AGENT FOR OCULAR FUNDUS DISEASE” (KYUSHU UNIVERSITY, NATIONAL UNIVERSITY CORPORATION, priority 2013, published 2019).
# Tested on: mice OIR (Oxygen-Induced Retinopathy) model
# Assay: Mice OIR (oxygen-induced retinopathy) model, flat-mounted retina
# Assay type: in vivo, C57BL/6JJcl mice
# Conditions: ocular instillation 20 μL three times a day, day 12 to day 17 after birth, flat mount
# Procedure: The effectiveness of (S)-(−)-1-(4-fluoro-5-isoquinolinesulfonyl)-2-methyl-1,4-homopiperazine (compound 1) in a mice OIR model commonly used as a model of ischemic retinopathy such as diabetic retinopathy was examined in the following manner. Compound 1 solutions: 0.4% solution, 0.8% solution (instillation volume: 20 μL) Fasudil solution: 0.4% solution (instillation volume: 20 μL) Test animals: C57BL/6JJcl mice (sex: male, 8 to 14 mice per group) C57BL/6JJcl mice born on the same day were reared in a 75%-oxygen environment from day 7 after birth, and were then transferred to a normal indoor environment on day 12 after birth to start administration by ocular instillation. Test groups were a saline instillation group (control), a 0.4% compound 1 solution instillation group, a 0.8% compound 1 solution instillation group, and a 0.4% fasudil solution instillation group, and saline, the compound 1 solution, or the fasudil solution was administered by ocular instillation three times a day. On day 17 after birth, ischemic retinal areas (non-perfused areas) and neovascular areas were quantified for evaluation by flat-mounting or fluorescein fundus angiography. More specifically, 1 g/kg of pentobarbital (Nembutal) was administered intraperitoneally for euthanasia under deep anesthesia, and then both eyeballs were excised and fixed with 4% paraformaldehyde (PFA) at 37° C. for 1 hour, and the corneal limbus was circumferentially incised to remove the cornea and iris from the eyeball. Then, after fixation with 4% PFA at 37° C. for 1 hour, the lens, sclera, and choroid were removed, and the eye cup including the retina was isolated. Further, the retina was fixed with 4% PFA at 37° C. for 3 hours, washed with PBS three times (15 min per wash, 37° C.), dehydrated (methanol 50% 100%, 10 min per methanol treatment, 37° C.), washed with PBS three times (15 min per wash, 37° C.), and blocked with Blocking Buffer (1% BSA, 0.5% Triton-X in PBS) for 60 minutes (37° C.). Then, the retina was treated with a primary antibody (0.7% FITC-conjugates Anti-lectin Ab in PBS, 4° C., overnight) and washed with PBS three times (15 min per wash, 37° C.). Then, 4 to 6 cuts were radially made in the eye cup, and the flat-mounted retina was covered with Crystal Mount. Then, the image of the flat-mounted retina was taken with a fluorescence microscope (BZ-9000, KEYENCE Corp, Osaka, Japan), and the proportion of the non-perfused area to the entire retina and the proportion of the neovascular area to the entire retina were calculated by the following formulas in NIH image J software. The thus obtained values were converted to relative values by regarding the obtained values of the saline instillation group (control) as 100%, and statistical analysis was performed by Wilcoxon test. Non-perfused area=area of avascular region/area of entire retina Neovascular area=area of neovascular region/area of entire retina
smiles,measurement,setting,value
"C[C@H]1CNCCCN1S(=O)(=O)c1cccc2cncc(F)c12 [compound 1, (S)-(−)-1-(4-fluoro-5-isoquinolinesulfonyl)-2-methyl-1,4-homopiperazine]",relative value of the neovascular area (saline instillation group = 100%),0.4% solution,58.2%
same,relative value of the non-perfused area (saline instillation group = 100%),0.4% solution,77.0%
same,relative value of the neovascular area (saline instillation group = 100%),0.8% solution,52.7%
same,relative value of the non-perfused area (saline instillation group = 100%),0.8% solution,58.1%
